Assay results from publication PMC9942140 (Journal of medicinal chemistry, 2022).

Molecular target: T1, hepatocyte nuclear factor 4α (HNF4α) (Homo sapiens, UniProt P41235)
T1 sequence (P41235 147-377): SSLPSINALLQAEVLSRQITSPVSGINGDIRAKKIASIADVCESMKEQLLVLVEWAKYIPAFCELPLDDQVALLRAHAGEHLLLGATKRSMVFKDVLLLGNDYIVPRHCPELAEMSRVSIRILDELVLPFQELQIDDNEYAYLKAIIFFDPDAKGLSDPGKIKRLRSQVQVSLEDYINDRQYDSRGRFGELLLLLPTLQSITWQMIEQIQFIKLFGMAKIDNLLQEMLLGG
Assay: intrinsic tyrosine/tryptophan fluorescence quenching titration of purified LBD
Type: binding

Kd: 312 nM
SMILES: COc1cc(C)c(C(C)C)cc1S(=O)(=O)N(CC(O)Cn1nnnc1-c1ccccn1)c1ccccc1C (racemic) [compound 33, N-(2-Hydroxy-3-(5-(pyridin-2-yl)-1H-tetrazol-1-yl)propyl)-5-isopropyl-2-methoxy-4-methyl-N-(o-tolyl)benzenesulfonamide]
